Converted amounts (≈) assume the structure as drawn.
Key:
[1] = Cytotoxicity against Homo sapiens (human) MT4 cells after 4 days by MTT assay; format: cell-based
Candida albicans = assay: Antimicrobial activity against Candida albicans after 2 days by serial dilution method; format: functional
[2] = tested on: Human immunodeficiency virus 2; assay: Antiviral activity against Human immunodeficiency virus type 2 (ISOLATE ROD) infected human MT4 cells assessed as inhibition of virus-induced cytopathic effect after 4 days by MTT assay; format: functional, organism-based; settings: Human immunodeficiency virus 2, ISOLATE ROD, MT4, 96 h
Human betaherpesvirus 5 [3] = assay: Antiviral activity against Human herpesvirus 5 Davis infected human HEL cells assessed as reduction in the virus plaque formation; format: functional, organism-based; settings: Human betaherpesvirus 5, Davis
Bacillus subtilis = assay: Antimicrobial activity against Bacillus subtilis after 24 hr by serial dilution method; format: functional
[4] = tested on: Human immunodeficiency virus 1; assay: Antiviral activity against Human immunodeficiency virus 1 IIIB infected human MT4 cells assessed as inhibition of virus-induced cytopathic effect after 4 days by MTT assay; format: functional, organism-based; settings: MT4, 96 h
Human betaherpesvirus 5 [5] = assay: Antiviral activity against Human herpesvirus 5 strain AD169 infected human HEL cells assessed as reduction in the virus plaque formation; format: functional, organism-based; settings: Human betaherpesvirus 5, AD169, HEL
[6] = Cytotoxicity against HEL; format: cell-based; settings: human, HEL cells
Human alphaherpesvirus 3 [7] = assay: Antiviral activity against thymidine kinase-positive Human herpesvirus 3 infected in HEL cells assessed as inhibition of viral plaque formation; format: functional, organism-based; settings: Human alphaherpesvirus 3, HEL
[8] = Octanol-water partition coefficient, log P of the compound; format: physicochemical
Aspergillus niger = assay: Antimicrobial activity against Aspergillus niger after 7 days by serial dilution method; format: functional
Staphylococcus aureus = assay: Antimicrobial activity against Staphylococcus aureus after 24 hr by serial dilution method; format: functional
Escherichia coli = assay: Antimicrobial activity against Escherichia coli after 24 hr by serial dilution method; format: functional
[9] = Cytotoxicity against HEL assessed as minimum concentration required to cause morphological changes; format: cell-based; settings: human, HEL cells
Human alphaherpesvirus 3 [10] = assay: Antiviral activity against thymidine kinase-deficient Human herpesvirus 3 infected in HEL cells assessed as inhibition of viral plaque formation; format: functional, organism-based; settings: Human alphaherpesvirus 3, HEL

| SMILES | EC50 (Human betaherpesvirus 5 [3]) | EC50 (Human betaherpesvirus 5 [5]) | EC50 (Human alphaherpesvirus 3 [7]) | logP [8] | EC50 (Human alphaherpesvirus 3 [10]) | CC50 at 96 h [1] | -logMIC (Candida albicans) | EC50 [2] | -logMIC (Bacillus subtilis) | EC50 [4] | CC50 [6] | -logMIC (Aspergillus niger) | -logMIC (Staphylococcus aureus) | -logMIC (Escherichia coli) | MCC [9] |
| --- | --- | --- | --- | --- | --- | --- | --- | --- | --- | --- | --- | --- | --- | --- | --- |
| O=C(COc1cccc2ccccc12)N/N=C/c1c(O)ccc2ccccc12 | > 0.8 µg/mL | > 0.8 µg/mL | > 0.8 µg/mL | 4.74 | > 0.8 µg/mL | 2.12 µg/mL (≈ 5.72 µM) | 0.87 | > 2.12 µg/mL | 0.57 | > 2.12 µg/mL | 1.94 µg/mL (≈ 5.24 µM) | 0.87 | 0.87 | 0.87 | 4 µg/mL |
| C/C(=N\NC(=O)COc1cccc2ccccc12)c1cccc([N+](=O)[O-])c1 | > 4 µg/mL | > 4 µg/mL | > 4 µg/mL | 3.37 | > 4 µg/mL | 12.1 µg/mL (≈ 33.2 µM) | 1.76 | > 12.1 µg/mL | 1.16 | > 12.1 µg/mL | 10.5 µg/mL (≈ 28.9 µM) | 1.46 | 1.76 | 1.46 | 20 µg/mL |
| C/C(=N\NC(=O)COc1cccc2ccccc12)c1ccc(O)cc1O | > 100 µg/mL | > 100 µg/mL | 58.5 µg/mL (≈ 167 µM) | 4.31 | > 100 µg/mL | 59.9 µg/mL (≈ 171 µM) | 1.45 | > 59.9 µg/mL | 1.15 | > 59.9 µg/mL | 74.8 µg/mL (≈ 213 µM) | 1.45 | 1.15 | 1.75 | > 100 µg/mL |
| C/C(=N\NC(=O)COc1cccc2ccccc12)c1ccc(Br)cc1 | > 4 µg/mL | > 4 µg/mL | > 4 µg/mL | 3.61 | > 4 µg/mL | 77.6 µg/mL (≈ 195 µM) | 0.6 | > 77.6 µg/mL | 0.9 | > 77.6 µg/mL | 15.3 µg/mL (≈ 38.5 µM) | 0.6 | 0.6 | 0.6 | 20 µg/mL |
| O=C(COc1cccc2ccccc12)N/N=C/C=C/c1ccccc1 | > 20 µg/mL | > 20 µg/mL | > 20 µg/mL | 4.43 | > 20 µg/mL | 82.7 µg/mL (≈ 250 µM) | 1.72 | > 62.7 µg/mL | 1.12 | > 62.7 µg/mL | 100 µg/mL (≈ 303 µM) | 0.82 | 1.12 | 1.12 | 100 µg/mL |
| C/C(=N\NC(=O)COc1cccc2ccccc12)c1ccc(Cl)cc1 | 4 µg/mL (≈ 11.3 µM) | > 0.8 µg/mL | 2.5 µg/mL (≈ 7.09 µM) | 4.17 | 3.24 µg/mL (≈ 9.18 µM) | 4.07 µg/mL (≈ 11.5 µM) | 1.75 | > 4.07 µg/mL | 1.15 | > 4.07 µg/mL | 7.1 µg/mL (≈ 20.1 µM) | 0.85 | 1.45 | 1.15 | ≥ 4 µg/mL |
| C/C(=N\NC(=O)COc1cccc2ccccc12)c1ccccc1O | > 4 µg/mL | > 4 µg/mL | 7 µg/mL (≈ 20.9 µM) | 3.08 | 7.9 µg/mL (≈ 23.6 µM) | 11.2 µg/mL (≈ 33.6 µM) | 0.82 | > 11.2 µg/mL | 0.82 | > 11.2 µg/mL | 4 µg/mL (≈ 12 µM) | 0.82 | 1.13 | 1.43 | 20 µg/mL |
| C/C(=N\NC(=O)COc1cccc2ccccc12)c1ccccc1 | > 4 µg/mL | > 4 µg/mL | > 20 µg/mL | 3.65 | > 20 µg/mL | 105 µg/mL (≈ 328 µM) | 0.82 | > 105 µg/mL | 0.82 | > 105 µg/mL | 20 µg/mL (≈ 62.8 µM) | 0.82 | 0.82 | 0.82 | 20 µg/mL |

Now from value to compound, other results behind:

| EC50 (Human betaherpesvirus 5 [3]) | EC50 (Human betaherpesvirus 5 [5]) | EC50 (Human alphaherpesvirus 3 [7]) | logP [8] | EC50 (Human alphaherpesvirus 3 [10]) | SMILES | CC50 at 96 h [1] | -logMIC (Candida albicans) | EC50 [2] | -logMIC (Bacillus subtilis) | EC50 [4] | CC50 [6] | -logMIC (Aspergillus niger) | -logMIC (Staphylococcus aureus) | -logMIC (Escherichia coli) | MCC [9] |
| --- | --- | --- | --- | --- | --- | --- | --- | --- | --- | --- | --- | --- | --- | --- | --- |
| > 4 µg/mL | > 4 µg/mL | > 20 µg/mL | 4.49 | > 20 µg/mL | Cc1ccc(/C=N/NC(=O)COc2cccc3ccccc23)cc1 | 83.9 µg/mL (≈ 263 µM) | 0.52 | > 83.9 µg/mL | 0.52 | > 83.9 µg/mL | 80.1 µg/mL (≈ 252 µM) | 0.82 | 1.12 | 0.52 | 20 µg/mL |
| > 20 µg/mL | > 20 µg/mL | > 20 µg/mL | 4.16 | > 20 µg/mL | O=C(COc1cccc2ccccc12)N/N=C/c1ccc(F)cc1 | 65 µg/mL (≈ 202 µM) | 0.81 | > 65 µg/mL | 1.11 | > 65 µg/mL | 71.6 µg/mL (≈ 222 µM) | 0.81 | 1.41 | 1.41 | 100 µg/mL |
| > 100 µg/mL | > 100 µg/mL | > 100 µg/mL | 4.81 | > 100 µg/mL | O=C(COc1cccc2ccccc12)N/N=C/c1ccc(Br)cc1 | 106 µg/mL (≈ 278 µM) | 0.58 | > 106 µg/mL | 0.58 | > 106 µg/mL | 100 µg/mL (≈ 261 µM) | 0.58 | 0.58 | 0.58 | > 100 µg/mL |
| > 20 µg/mL | > 20 µg/mL | > 20 µg/mL | 4.11 | > 20 µg/mL | CSc1ccc(/C=N/NC(=O)COc2cccc3ccccc23)cc1 | 68.3 µg/mL (≈ 195 µM) | 1.45 | > 68.3 µg/mL | 0.85 | > 68.3 µg/mL | > 100 µg/mL | 0.54 | 0.85 | 0.85 | ≥ 100 µg/mL |
| > 20 µg/mL | > 4 µg/mL | > 4 µg/mL | 4.81 | > 4 µg/mL | O=C(COc1cccc2ccccc12)N/N=C/c1ccccc1Br | 11.4 µg/mL (≈ 29.8 µM) | 0.88 | > 11.4 µg/mL | 0.88 | > 11.4 µg/mL | 100 µg/mL (≈ 261 µM) | 0.88 | 1.19 | 0.88 | ≥ 20 µg/mL |
| > 20 µg/mL | > 20 µg/mL | > 20 µg/mL | 4.54 | > 20 µg/mL | O=C(COc1cccc2ccccc12)N/N=C/c1ccccc1Cl | 56.2 µg/mL (≈ 166 µM) | 0.83 | > 56.2 µg/mL | 0.83 | > 56.2 µg/mL | 62.7 µg/mL (≈ 185 µM) | 0.83 | 1.13 | 0.83 | 100 µg/mL |
| > 20 µg/mL | > 20 µg/mL | > 20 µg/mL | 3.79 | > 20 µg/mL | O=C(COc1cccc2ccccc12)N/N=C/c1c[nH]c2ccccc12 | 51.5 µg/mL (≈ 150 µM) | 0.84 | > 51.5 µg/mL | 1.14 | > 51.5 µg/mL | > 100 µg/mL | 0.84 | 0.84 | 0.84 | 100 µg/mL |
| > 4 µg/mL | > 4 µg/mL | 9.6 µg/mL (≈ 30 µM) | 3.73 | 10.5 µg/mL (≈ 32.8 µM) | O=C(COc1cccc2ccccc12)N/N=C/c1ccc(O)cc1 | 26.5 µg/mL (≈ 82.7 µM) | 1.71 | > 26.5 µg/mL | 1.11 | > 26.5 µg/mL | 60.6 µg/mL (≈ 189 µM) | 1.11 | 1.71 | 1.41 | 20 µg/mL |
| > 4 µg/mL | > 4 µg/mL | > 0.8 µg/mL | 3.73 | > 0.8 µg/mL | O=C(COc1cccc2ccccc12)N/N=C/c1ccccc1O | 5.19 µg/mL (≈ 16.2 µM) | 1.41 | > 5.19 µg/mL | 1.11 | > 5.19 µg/mL | 3.57 µg/mL (≈ 11.1 µM) | 1.11 | 1.71 | 1.41 | 20 µg/mL |
| > 4 µg/mL | > 4 µg/mL | > 4 µg/mL | 3.97 | > 4 µg/mL | O=C(COc1cccc2ccccc12)N/N=C/c1ccc([N+](=O)[O-])cc1 | 87.8 µg/mL (≈ 251 µM) | 1.45 | > 87.8 µg/mL | 1.14 | > 87.8 µg/mL | 14.2 µg/mL (≈ 40.6 µM) | 0.54 | 0.84 | 0.84 | 20 µg/mL |
| > 20 µg/mL | > 20 µg/mL | 13.8 µg/mL (≈ 39.4 µM) | 3.48 | 20 µg/mL (≈ 57.1 µM) | COc1ccc(/C=N/NC(=O)COc2cccc3ccccc23)cc1O | 7.05 µg/mL (≈ 20.1 µM) | 1.15 | > 7.05 µg/mL | 1.45 | > 7.05 µg/mL | 27.7 µg/mL (≈ 79.1 µM) | 1.15 | 1.15 | 1.45 | 100 µg/mL |
